This data set can be described thus: Measurement of LogP values by HPLC on reversed phase columns (EEC directive 79/831 Annex V.A8). In kind it is physicochemical. Put shortly:
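LogP measured by reversed-phase HPLC following EEC directive 79/831 Annex V.A8. Lambda-max taken from UV spectra at 200–400 nm at chromatographic peak maxima; diastereoisomer values listed separately.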

Structures are written as SMILES. Marks after values point to notes of the source that are not given here.

81 molecules from US20190110476A1, “NOVEL ISOTHIAZOLAMIDES, PROCESSES FOR THEIR PREPARATION AND THEIR USE AS FUNGICIDES” (priority 2014, published 2019) can be followed below.

`COc1ccc(CNc2nsc(C(=O)NC3CCc4ccc(C(C)(C)C)cc4C3)c2Cl)cc1` (stereo not drawn) [I-1308]: the LogP was 5.41[a].

On to `COc1ccc(CNc2nsc(C(=O)NCc3cnc(Cl)cn3)c2Cl)cc1` [I-1309], for which the LogP was 2.98[a].

Regarding `COc1ccc(CNc2nsc(C(=O)NC3CCCc4ccncc43)c2Cl)cc1` (stereo not drawn) [I-1310], the LogP is 1.67[a]. Same read-out and setting: to `COc1ccc(CNc2nsc(C(=O)NC3CCCc4cc(C(C)(C)C)ccc43)c2Cl)cc1` (stereo not drawn) [I-1311] belongs 5.46[a]; to `CCn1ncc(CNC(=O)c2snc(NCc3ccc(OC)cc3)c2Cl)c1C(F)F` [I-1312], 3.09[a]; to `COc1ccc(CNc2nsc(C(=O)NCc3cc(C(F)(F)F)cc(C(F)(F)F)c3)c2Cl)cc1` [I-1313], 4.46[a]. Turning to `COc1ccc(CNc2nsc(C(=O)NCc3ccncc3C)c2Cl)cc1` [I-1314], the LogP was 1.52[a]. Same read-out and setting: to `COc1ccc(CNc2nsc(C(=O)NCc3cnn(CC(F)F)c3)c2Cl)cc1` [I-1315] belongs 2.58[a]; to `COc1ccc(CNc2nsc(C(=O)NCc3ccnc(OC)n3)c2Cl)cc1` [I-1316], 2.56[a]; to `COc1ccc(CNc2nsc(C(=O)NC(C)c3nccs3)c2Cl)cc1` (stereo not drawn) [I-1317], 2.82[a]. On the same count and under the same terms, in the case of `COc1ccc(CNc2nsc(C(=O)NCc3ccc(OC)cn3)c2Cl)cc1` [I-1318] it was 2.45[a]; in that of `COc1ccc(CNc2nsc(C(=O)NCc3cccc(OC)n3)c2Cl)cc1` [I-1319], 3.41[a]; in that of `COc1ccc(CNc2nsc(C(=O)NCc3ccc(C)n3C)c2Cl)cc1` [I-1320], 3.39[a]. The same measure, in the same setting: in the case of `COc1ccc(CNc2nsc(C(=O)NCc3ccc(OC)c(C(F)(F)F)c3)c2Cl)cc1` [I-1321] it was 3.85[a]; in that of `COc1ccc(CNc2nsc(C(=O)NC3(c4ccccc4Br)CC3)c2Cl)cc1` [I-1322], 4.40[a]. Consider `COc1ccc(CNc2nsc(C(=O)NCc3cncs3)c2Cl)cc1` [I-1323], for which the LogP is 2.39[a].

As to `COc1ccc(CNc2nsc(C(=O)NC(Cn3ccnc3)C(C)(C)C)c2Cl)cc1` (stereo not drawn) [I-1324], the LogP was 1.82[a]. Still for that read-out and setting: in the case of `COc1ccc(CNc2nsc(C(=O)NC3CC(C)(C)Cc4oc(C)cc43)c2Cl)cc1` (stereo not drawn) [I-1325] it was 4.74[a]; in that of `COc1ccc(CNc2nsc(C(=O)NC(C#N)c3ccc(F)c(F)c3)c2Cl)cc1` (stereo not drawn) [I-1326], 3.61[a]; in that of `COc1ccc(CNc2nsc(C(=O)NC3(c4ccccc4Cl)CC3)c2Cl)cc1` [I-1327], 4.24[a]. For the molecule `COc1ccc(CNc2nsc(C(=O)NCc3cc(OC)cc(OC)c3)c2Cl)cc1` [I-1328], the LogP is 3.41[a]. Same read-out and setting: to `COc1ccc(CNc2nsc(C(=O)NC(C)(C)c3ccon3)c2Cl)cc1` [I-1329] belongs 3.04[a]. Same read-out and setting: in the case of `COc1ccc(CNc2nsc(C(=O)NCc3cnccc3OC)c2Cl)cc1` [I-1330] it was 1.49[a]. Turning to `COc1ccc(CNc2nsc(C(=O)NC3CCc4cc(C(C)(C)C)ccc43)c2Cl)cc1` (stereo not drawn) [I-1331], the LogP is 5.22[a]. On the same count and under the same terms, to `COc1ccc(CNc2nsc(C(=O)NC(C)c3nc(C(C)C)no3)c2Cl)cc1` (stereo not drawn) [I-1332] belongs 3.46[a]; to `CCc1c(CNC(=O)c2snc(NCc3ccc(OC)cc3)c2Cl)cnn1CC` [I-1333], 2.82[a].

For the molecule `COc1ccc(CNc2nsc(C(=O)NC3CCCCc4ccccc43)c2Cl)cc1` (stereo not drawn) [I-1334], the LogP was 4.40[a].

Take `COc1ccc(CNc2nsc(C(=O)NC(C#N)c3cccc(Cl)c3Cl)c2Cl)cc1` (stereo not drawn) [I-1335]: the LogP was 4.05[a]. As to `COc1ccc(CNc2nsc(C(=O)NC3CCOCC3C)c2Cl)cc1` (stereo not drawn) [I-1336], the LogP was 2.80[a]. For the molecule `COc1ccc(CNc2nsc(C(=O)NC(C)C3=NOCC3)c2Cl)cc1` (stereo not drawn) [I-1337], the LogP was 2.56[a]. The same measure, in the same setting: in the case of `COc1ccc(CNc2nsc(C(=O)NC(C)c3ccno3)c2Cl)cc1` (stereo not drawn) [I-1338] it was 2.73[a]; in that of `COc1ccc(CNc2nsc(C(=O)NCc3cn(C4CCCC4)nc3C)c2Cl)cc1` [I-1339], 3.23[a]. On to `COc1ccc(CNc2nsc(C(=O)NCc3csc4ccc(Cl)cc34)c2Cl)cc1` [I-1340], for which the LogP was 4.37[a]. With `COc1ccc(CNc2nsc(C(=O)NCc3cnn(C)c3C)c2Cl)cc1` [I-1341], the LogP is 2.33[a].

For `COc1ccc(CNc2nsc(C(=O)NCc3cncc(OC)c3)c2Cl)cc1` [I-1342], the LogP was 1.89[a]. As for `COc1ccc(CNc2nsc(C(=O)NC(C)c3ccc(Cl)nc3)c2Cl)cc1` (stereo not drawn) [I-1343], the LogP was 3.17[a].

For `COc1ccc(CNc2nsc(C(=O)NCc3cc(OC)c(OC)c(OC)c3)c2Cl)cc1` [I-1344], the LogP is 3.08[a].

As for `COc1ccc(CNc2nsc(C(=O)NCc3cccc(C)n3)c2Cl)cc1` [I-1345], the LogP is 1.78[a]. On to `COc1ccc(CNc2nsc(C(=O)NC3CCC4CCCC43)c2Cl)cc1` (stereo not drawn) [I-1346], for which the LogP is 4.35[a].

Regarding `COc1ccc(CNc2nsc(C(=O)NC3CCC(C4CCCCC4)CC3)c2Cl)cc1` (stereo not drawn) [I-1347], the LogP was 6.25[a].

Take `COc1ccc(CNc2nsc(C(=O)NC(C)c3ccc(OC)c(OC)c3)c2Cl)cc1` (stereo not drawn) [I-1348]: the LogP is 3.25[a]. Take `CCn1cc(C(C)NC(=O)c2snc(NCc3ccc(OC)cc3)c2Cl)c(C)n1` (stereo not drawn) [I-1349]: the LogP was 2.73[a]. On the same count and under the same terms, to `C=CCONC(=O)c1snc(NCc2ccc(OC)cc2)c1Cl` [I-1353] belongs 2.62[a].

On to `Nc1nsc(C(=O)NCC2(Br)CCCCC2)c1F` [I-1358], for which the LogP was 2.56[a]. Still for that read-out and setting: to `C#Cc1c(N)nsc1C(=O)NCC1CCCCC1F` (stereo not drawn) [I-1359] belongs 2.05[a]; to `Cc1nonc1NC(=O)c1snc(N)c1Cl` [I-1361], 1.27[a]. For the molecule `Cc1nc(CNC(=O)c2snc(N)c2Cl)cs1` [I-1362], the LogP was 1.14[a]. On the same count and under the same terms, to `CCC(NC(=O)c1cc(N)ns1)C1CCCCC1` (stereo not drawn) [I-1407] belongs 2.30[b]. The same measure, in the same setting: to `CC(C)(C)c1ccc2c(c1)CC(NC(=O)c1snc(N)c1Cl)CC2` (stereo not drawn) [I-1534] belongs 3.94[a]; to `CCC1(C)CC(NC(=O)c2snc(N)c2Cl)CC(C)(C)C1` (stereo not drawn) [I-1535], 4.01[a]; to `Nc1nsc(C(=O)NCC2CCCCC2Cl)c1F` (stereo not drawn) [I-1536], 2.16[a]. `Nc1nsc(C(=O)NCC2CCCCC2)c1N` [I-1539]: the LogP was 1.37[a].

Turning to `COc1ccc(CNc2nsc(C(=O)NC3CC34CCCCC4)c2Cl)cc1` (stereo not drawn) [I-1548], the LogP is 4.39[a]. In the case of `Nc1nsc(C(=O)NC2CC23CCCCC3)c1Cl` (stereo not drawn) [I-1549], the LogP was 2.54[a]. Take `Nc1nsc(C(=O)NCc2ccccc2Br)c1Cl` [I-1553]: the LogP is 1.88[a]. As for `Nc1nsc(C(=O)NCC2CCCCC2C(F)(F)F)c1Cl` (stereo not drawn) [I-1554], the LogP is 2.51[a]. Still for that read-out and setting: to `COc1ccc(CNc2nsc(C(=O)NCc3ccc(C#N)cc3)c2Cl)cc1` [I-1555] belongs 3.23[a]; to `COc1ccc(CNc2nsc(C(=O)N(Cc3ccc(F)cc3F)C(=O)c3ccc(C(F)(F)F)cc3)c2Cl)cc1` [I-1556], 5.14[a]. On the same count and under the same terms, to `CC1CCCC(NC(=O)c2snc(N)c2Cl)C1` (stereo not drawn) [I-1563] belongs 2.37[a]; to `CC1CCCCC1NC(=O)c1snc(N)c1I` (stereo not drawn) [I-1564], 2.14[a].

Consider `Nc1nsc(C(=O)NCC2CCCCC2C(F)(F)F)c1Cl` (stereo not drawn) [I-1566], for which the LogP was 2.63[a]. Still for that read-out and setting: to `Nc1nsc(C(=O)NCC2CCCCC2C(F)(F)F)c1Cl` (stereo not drawn) [I-1567] belongs 2.69[a].

Take `COc1ccc(CNC(=O)c2snc(N)c2Cl)cc1O` [I-1568]: the LogP is 1.03[a].

As for `CC(NC(=O)c1snc(N)c1Cl)C1CCCCC1` (stereo not drawn) [I-1569], the LogP was 2.84[a]. On the same count and under the same terms, to `CC(C)(C)OC(=O)Nc1nsc(C(=O)NCC2CCCCC2Cl)c1Cl` (stereo not drawn) [I-1571] belongs 3.53[a]; to `CC(C)(C)OC(=O)Nc1nsc(C(=O)NCC2CCCCC2Cl)c1F` (stereo not drawn) [I-1572], 3.34[a]; to `CC(C)(C)OC(=O)Nc1nsc(C(=O)NCC2CCCCC2Cl)c1Cl` (stereo not drawn) [I-1578], 3.52[a].

Turning to `Nc1nsc(C(=O)NCC2CCC(Cl)CC2)c1Cl` (stereo not drawn) [I-1579], the LogP was 2.20[a]. On the same count and under the same terms, in the case of `Nc1nsc(C(=O)NCC2CCCC(Cl)C2)c1Cl` (stereo not drawn) [I-1580] it was 2.23[a]. Take `CC(C)(C)OC(=O)Nc1nsc(C(=O)NCC2CCCCC2Cl)c1Cl` (stereo not drawn) [I-1581]: the LogP is 3.56[a].

Take `O=C(NC1CCCCC1)c1snc(N=C(c2ccccc2)c2ccccc2)c1Cl` [II-001]: the “LogP [a]” value is 5.13^[a]. What is called chromatographic logP is lipophilicity estimated from chromatographic retention. A high value points to higher lipophilicity. `O=C(NCC1CCCCC1)c1snc(N=C(c2ccccc2)c2ccccc2)c1Cl` [II-002, 4-chloro-N-(cyclohexylmethyl)-3-[(diphenylmethylene)amino]isothiazole-5-carboxamide] came in with a chromatographic logP (HPLC LC-UV, acidic range, 0.1% formic acid in water and acetonitrile as eluent) of 5.65. `C[C@H](NC(=O)c1snc(N=C(c2ccccc2)c2ccccc2)c1Cl)C1CCCCC1` [II-003]: the “LogP [a]” value was 5.93^[a]. `O=C(NCc1ccccc1Cl)c1snc(N=C(c2ccccc2)c2ccccc2)c1Cl` [II-004]: the “LogP [a]” value is 4.89^[a]. On the same count and under the same terms, in the case of `O=C(NCC1CCCO1)c1snc(N=C(c2ccccc2)c2ccccc2)c1Cl` (stereo not drawn) [II-005] it was 3.83^[a]. On the same count and under the same terms, in the case of `O=C(NCC1CCOCC1)c1snc(N=C(c2ccccc2)c2ccccc2)c1Cl` [II-006] it was 3.60^[a]; in that of `O=C(NCC1CCCOC1)c1snc(N=C(c2ccccc2)c2ccccc2)c1Cl` (stereo not drawn) [II-007], 3.71^[a].

With `O=C(NCC1CCCCO1)c1snc(N=C(c2ccccc2)c2ccccc2)c1Cl` (stereo not drawn) [II-008], the “LogP [a]” value was 4.55^[a]. On the same count and under the same terms, to `C[C@H](NC(=O)c1snc(NS(=O)(=O)c2ccccc2)c1Cl)C1CCCCC1` [II-009] belongs 3.75^[a]; to `COc1ccc(CNc2nsc(C(=O)NC(C)Cc3ccccc3Cl)c2Cl)cc1` (stereo not drawn) [II-010], 4.33^[a]; to `CC(Cc1ccccc1Cl)NC(=O)c1snc(N)c1Cl` (stereo not drawn) [II-011], 2.64^[a].
